From patent US20100323975A1, “THERAPEUTIC AGENT FOR CEREBRAL ISCHEMIC INJURY” (OTSUKA PHARMACEUTICAL FACTORY, INC., priority 2007, published 2010)
Peptide text beside a SMILES is read from it.

Key:
[1] = L-histidine concentration in blood after intravenous administration (Test Example 2); details: male, Wistar, rat, in vivo, 15 min
Method: (§1) 7- to 9-week-old Wistar male rats were divided into the following 8 administration groups. The number of rats in each group was set at 4. […]
The therapeutic agent for cerebral ischemic injury obtained in Production Example 2 was diluted by a factor of 2, and the thus diluted solution was administered into the caudal vein of each rat at a rate of 60 mL/kg/hr for 10 minutes. […]
(§2) L-histidine was added to water for injection purpose, and acetic acid was further added thereto, so as to dissolve L-histidine in the solution. The obtained solution was adjusted to pH 6.0 with a sodium hydroxide aqueous solution. The obtained injection solution (L-histidine concentration: 10% (W/V)) was administered into the caudal vein of each rat at a rate of 60 mL/kg/hr for 10 minutes.
L-histidine was added to water for injection purpose, and citric acid was further added thereto, so as to dissolve L-histidine in the solution. The obtained solution was adjusted to pH 6.0 with a sodium hydroxide aqueous solution. The obtained injection solution (L-histidine concentration: 10% (W/V)) was administered into the caudal vein of each rat at a rate of 60 mL/kg/hr for 10 minutes. […]
(§3) After administration of the agent, blood was collected from each rat at regular time intervals, and the concentration of L-histidine (monomer) in blood was then measured using a high speed amino acid analyzer L-8800A (manufactured by Hitachi High-Technologies Corporation). […] In addition, the body temperature, blood pressure, and cardiac rate of each test animal were measured during the period from before administration of the agent until after the administration of the agent, and at the same time, the appearance of each test animal was observed, so as to examine the presence or absence of side effects caused by administration of the agent. The L-histidine concentration in blood was measured 15 minutes after the administration of the agent, and the presence or absence of side effects caused by such administration of the agent was examined.

Wistar male rats = experiment: Identification of side effects after intravenous administration (Test Example 2); details: rat, in vivo
Method: as §1
L-histidine hydrochloride was dissolved in water for injection purpose, and the obtained solution was then adjusted to pH 6.0 with a sodium hydroxide aqueous solution. The obtained injection solution (L-histidine concentration: 10% (W/V)) was administered into the caudal vein of each rat at a rate of 60 mL/kg/hr for 10 minutes.
as §2
L-histidine was added to water for injection purpose, and citric acid was further added thereto, so as to dissolve L-histidine in the solution. The obtained solution was adjusted to pH 6.0 with a sodium hydroxide aqueous solution. The obtained injection solution (L-histidine concentration: 10% (W/V)) was administered into the caudal vein of each rat at a rate of 60 mL/kg/hr for 10 minutes.
β-alanyl-L-histidine was added to water for injection purpose, and the obtained solution was then adjusted to pH 7 with hydrochloric acid. The obtained injection solution (L-histidine concentration: 10% (W/V)) was administered into the caudal vein of each rat at a rate of 60 mL/kg/hr for 10 minutes. […]
as §3

[2] = Solubility in water at 25° C.; type: physicochemical
[3] = system: model of middle cerebral artery occlusion and subsequent reperfusion (cerebral ischemic injury); experiment: Infarction rate and cerebral edema rate in model of middle cerebral artery occlusion and subsequent reperfusion (Test Example 5); type: in vivo, Wistar male rats; details: Production Example 4 injection (0.64 mol/L), caudal vein 60 mL/kg/hr for 10 minutes, immediately after and 6 hours after reperfusion; 120 min occlusion; 24 hours after reperfusion; FIG. 2
Source text: Approximately 7-week-old Wistar male rats were used. The method of Koizumi et al. (Nou-socchu (Cerebral Apoplexy), Vol. 8, pp. 1-8, 1986) was applied to the rats under halothane anesthesia, so as to produce models of middle cerebral artery occlusion and subsequent reperfusion. Specifically, each rat was fixed under natural aspiration conditions under anesthesia with gas (initial anesthesia: performed in room air containing 3% halothane; continuous anesthesia: performed in room air containing 1% halothane), and the neck of the rat was then subjected to median incision. […]
On the day after the administration of the agent (24 hours after cerebral ischemia-reperfusion), a test animal was anesthetized with ether, and the brain was then excised. […] A slice of brain section was placed, with a surface to be measured down, into each well of a 12-well plate, which had been filled with a 2% TTC solution prepared by dissolving 2,3,5-triphenyltetrazolium chloride (TTC) in a phosphate buffered saline. […] Thus, the area of an infarct on the measurement surface of each brain section (the site in which brain tissue was considered to be necrosed) was measured, and the obtained value was then multiplied by the thickness of the brain section, so as to obtain the volume of an infarct in each brain section. […]

NCC(=O)N[C@@H](Cc1c[nH]cn1)C(=O)O [glycyl-L-histidine] (H-Gly-His-OH)
L-histidine concentration in blood (mean value) [1]: 6.2 mM
Side effects (Wistar male rats): None
solubility [2]: ≥ 3500 mM
Cerebral edema rate compared with control group [3]: remarkably suppressed
Infarction rate compared with control group [3]: remarkably suppressed
